Data taken from patent US9029582B2, “Pharmaceutical composition” (Capital, Business Y Gestion de Finanzas S.L., priority 2011, dated 2015).

Columns and labels:
[1] = Dissolution / reconstitution time at 50 mg/mL in castor oil, ethanol and benzyl alcohol solvent (benzyl benzoate-free); type: physicochemical; settings: solvent of castor oil and benzyl benzoate-free alcohol mixtures
Procedure: The lyophilizate should be reconstituted within a reasonable period, typically of less than 2 minutes (5); if reconstitution time is excessive, that is, more than 3 minutes, the user may get impatient or frustrated (6). […] This comparison was performed by dissolving fulvestrant at a concentration of 50 mg/mL, using a solvent comprising castor oil and benzyl benzoate-free alcohol mixtures.
A 50 mL Schott, type I, glass vial is placed on an Ohaus Adventurer balance. Then, 3.12 g Merck ethanol, 4.17 g Sigma-Aldrich benzyl alcohol and 12.70 g Sigma-Aldrich castor oil are added.
With the aid of a 1000 uL Eppendorf Research micropipette, 5 mL of the previously prepared solvent was added into an 11 mL Nuova Ompi type I of glass vial. The vial is capped with a solution S-additive plug from WestPharma and crimped with an aluminum seal.
The process for reconstituting a vial of lyophilizate of example 1 with the solvent of said example, using a Needle-less Transfer System Transfer Device 20/20 w/150 mic Filter Sterile from Westpharma, FIG. 9, is as follows:
10. The complete content of the syringe is discharged into the lyophilizate vial. […]
Using a Sper Scientific timer, it was determined that less than 90 seconds were required for reconstituting the lyophilizate. […]
It was determined that more than 60 minutes were required to completely dissolve Fulvestrant in the solvent using a Sper Scientific timer.

[2] = Stability test of the fulvestrant solution in acetic acid during 6 hours at room temperature (HPLC titer and impurities); type: physicochemical; settings: fulvestrant in glacial acetic acid
Procedure: To a 10 mL beaker, fitted with a magnetic stirrer, 2.5 mL glacial acetic acid, Merck lot K 36685863, is added.
Fifty mg Fulvestrant from Scinopharm, lot#70850AA003 were weighed using an Ohaus model Adventurer balance.
Stirring of acetic acid is started and Fulvestrant is slowly added which is rapidly dissolved. After all Fulvestrant was added stirring is continued for 5 minutes.
Stirring is stopped and the solution is left at room temperature for 6 hours, then dissolution is analyzed in terms of titer and purity by HPLC, and compared to Scinopharm Fulvestrant as used for manufacturing the lyophilizate. HPLC determinations were carried out on an HPLC Waters with a Waters 1525 binary pump, Waters 717 autosampler, and a Waters 2996 diode array detector; the HPLC column used for determining titer and purity is an Agilent Eclipse XDB-C8 3.5 u 4.6×150 Rapid Res column; the chromatographic method corresponds to US Pharmacopeia (USP, 34 (2011)) monograph for Fulvestrant.

[3] = cited from earlier work

dissolution time [1]: more than 60 minutes
titer of the solution [2]: 99.2%
total impurities in the solution [2]: 0.1%
SMILES: C[C@]12CC[C@@H]3c4ccc(O)cc4C[C@@H](CCCCCCCCC[S+]([O-])CCCC(F)(F)C(F)(F)F)[C@H]3[C@@H]1CC[C@@H]2O (some centres unmarked) [Fulvestrant]
solubility in castor oil with organic solvents (alcohol) and a non-aqueous ester-type solvent ([3]; carrier of US 6,774,122): at least 50 mg/mL
solubility in ethanol ([3]; ethanol, ref (3) US 6,774,122): highly soluble
fulvestrant solubility in propylene glycol ([3]; propylene glycol, according to ref (7) US 2009/0227549): 4000 µg/mL
solubility in tert-butanol ([3]; tert-butanol, ref (7)): highly soluble
solubility in water ([3]; water, ref (3)): practically insoluble
